These compounds were tested on human GABA α1β3β2 receptors (assay: GABAa, 3H-muscimol binding assay). Conditions: activity at 10 μM as percentage of activity of control compound P18 at 10 μM (increase of 3H-muscimol binding).
Experimental: Membranes from recombinant Ltk cells expressing human GABA α1β3β2 receptors were suspended in an ice-cold solution of 100 mM KCl, 10 mM KH2PO4, adjusted to pH=7.4 with 1 M KOH. Tritiated muscimol (PerkinElmer, Wellesley, Mass.) at a concentration of 2 nM, and serial five-fold dilutions of test compounds at 10 μM, 2.0 μM, 400 nM, 80 nM, 16 nM, 3.2 nM, 0.64 nM and 0.13 nM were mixed in 96-well plates containing 200 μL of membrane suspension. Cold muscimol and compound P18 were used as negative and positive controls respectively. The assay mixture was incubated at 4° C. for 2 hours, then harvested on GF/C filter plates and washed with ice-cold 50 mM Tris-Ci buffer. The filter plates were dried and counted in a Wallac MicroBeta® Trilux detector (Model 1450-030; PerkinElmer, Wellesley, Mass.), and the data were downloaded and analyzed using Prism 3.0. The activity of compound P18 at 10 μM was used as reference for the test compounds, and it was expressed as increasing ^3H-muscimol binding by 100%, whereas cold muscimol at 2 μM antagonized ^3H-muscimol binding by 100%. The tested compound's activity at 10 μM was expressed as a percentage of compound P18's activity at 10 μM.
As a reference, the parent compound (the compound not substituted with a R^4 heteroaryl, such as pyrazole or 1,2,4-oxadiazole, as indicated below) is also shown with its Gamma Amino Butyric Acid (GABA) Receptor activity. […] As a result, the compounds of the present invention in which R^4 is a heteroaryl, such as pyrazole or 1,2,4-oxadiazole, have the unexpected benefits of minimizing off target activity at the GABA receptor.
Note: % GABA is defined as the GABA activity of the indicated compound expressed as a percentage of the activity of control compound P18. NA=data not available.

In order of rising “% GABA Example” value:
1. Cc1c(C(=O)C(C)(C)C)oc2nc(-c3ccc(-c4ncon4)cc3Cl)c(-c3ccc(Cl)cc3)cc12 [Example 42, 1-[6-[2-Chloro-4-(1,2,4-oxadiazol-3-yl)phenyl]-5-(4-chlorophenyl)-3-methylfuro[2,3-b]pyridin-2-yl]-2,2-dimethylpropan-1-one]  5%
2. CC(C)C(=O)c1oc2nc(-c3ccc(-c4cc[nH]n4)cc3Cl)c(-c3ccc(Cl)cc3)cc2c1N1CCCC1=O [Example 28, 1-{5-(4-Chlorophenyl)-6-[2-chloro-4-(1H-pyrazol-3-yl)phenyl]-2-isobutyrylfuro[2,3-b]pyridin-3-yl}pyrrolidin-2-one]  16%
3. Cc1n[nH]cc1-c1ccc(-c2nc3oc(C(=O)C(C)(C)C)c(C)c3cc2-c2ccc(Cl)cc2)c(Cl)c1 [Example 36, 1-[6-[2-Chloro-4-(3-methyl-1H-pyrazol-4-yl)phenyl]-5-(4-chlorophenyl)-3-methylfuro[2,3-b]pyridin-2-yl]-2,2-dimethylpropan-1-one]  16%
4. CC(=O)n1cc(-c2ccc(-c3nc4oc(C(=O)C(C)(C)O)c(N)c4cc3-c3ccc(Cl)cc3)c(Cl)c2)cn1 [Example 30, 1-[6-[4-(1-Acetyl-1H-pirazol-4-yl)-2-chlorophenyl]-3-amino-5-(4-chlorophenyl)furo[2,3-b]pyridin-2-yl]-2-hydroxy-2-methylpropan-1-one]  19%
5. CNC(=O)c1c(C(=O)C(C)(C)C)oc2nc(-c3ccc(-c4cc[nH]n4)cc3Cl)c(-c3ccc(Cl)cc3)cc12 [Example 29, 5-(4-Chlorophenyl)-6-[2-chloro-4-(1H-pyrazol-3-yl)phenyl]-2-(2,2-dimethylpropanoyl)-N-methylfuro[2,3-b]pyridine-3-carboxamide]  20%
6. CCC(=O)c1oc2nc(-c3ccc(-c4cc[nH]n4)cc3Cl)c(-c3ccc(Cl)cc3)cc2c1C [Example 26, 1-{5-(4-Chlorophenyl)-6-[2-chloro-4-(1H-pyrazol-3-yl)phenyl]-3-methylfuro[2,3-b]pyridin-2-yl}propan-1-one]  28%
7. CC(C)(C)C(=O)c1oc2nc(-c3ccc(-c4cc[nH]n4)cc3Cl)c(-c3ccc(Cl)cc3)cc2c1NC(=O)CO [Example 27, N-[5-(4-Chlorophenyl)-6-[2-chloro-4-(3H-pyrazol-5-yl)phenyl]-2-(2,2-dimethyl-propanoyl)furo[2,3-b]pyridin-3-yl]-2-hydroxyacetamide]  29%
8. CC(C)(C)C(=O)c1oc2nc(-c3ccc(-c4cn[nH]c4)cc3Cl)c(-c3ccc(Cl)cc3)cc2c1NC(=O)CO [Example 32, N-[5-(4-Chlorophenyl)-6-[2-chloro-4-(1H-pyrazol-4-yl)phenyl]-2-(2,2-dimethylpropanoyl)furo[2,3-b]pyridin-3-yl]-2-hydroxyacetamide]  29%
9. Cc1n[nH]cc1-c1ccc(-c2nc3oc(C(=O)C(C)(C)O)c(C)c3cc2-c2ccc(Cl)cc2)c(Cl)c1 [Example 34, 1-[6-[2-Chloro-4-(3-methyl-1H-pyrazol-4-yl)phenyl]-5-(4-chlorophenyl)-3-methylfuro[2,3-b]pyridin-2-yl]-2-hydroxy-2-methylpropan-1-one]  29%
10. Cc1n[nH]cc1-c1ccc(-c2nc3oc(C(=O)C(C)C)c(N4CCCC4=O)c3cc2-c2ccc(Cl)cc2)c(Cl)c1 [Example 39, 1-[6-[2-Chloro-4-(3-methyl-1H-pyrazol-4-yl)phenyl]-5-(4-chlorophenyl)-2-isobutyrylfuro[2,3-b]pyridin-3-yl]pyrrolidin-2-one]  29%
11. CC(C)(O)C(=O)c1oc2nc(-c3ccc(-c4cn[nH]c4)cc3Cl)c(-c3ccc(Cl)cc3)cc2c1NC(=O)CO [Example 31, N-[5-(4-Chlorophenyl)-6-[2-chloro-4-(1H-pyrazol-4-yl)phenyl]-2-(2-hydroxy-2-methylpropanoyl)-furo[2,3-b]pyridin-3-yl]-2-hydroxyacetamide]  30%
12. CC(=O)Nc1c(C(=O)C(C)C)oc2nc(-c3ccc(-c4c[nH]nc4C)cc3Cl)c(-c3ccc(Cl)cc3)cc12 [Example 33, N-[6-[2-Chloro-4-(3-methyl-1H-pyrazol-4-yl)phenyl]-5-(4-chlorophenyl)-2-isobutyrylfuro[2,3-b]pyridin-3-yl]acetamide]  34%
13. CCc1c(C(=O)C(C)(C)O)oc2nc(-c3ccc(-c4c[nH]nc4C)cc3Cl)c(-c3ccc(Cl)cc3)cc12 [Example 35, 1-[6-[2-Chloro-4-(3-methyl-1H-pyrazol-4-yl)phenyl]-5-(4-chlorophenyl)-3-ethylfuro[2,3-b]pyridin-2-yl]-2-hydroxy-2-methylpropan-1-one]  59%

Same assay, conditions: parent compound without R^4 heteroaryl; activity at 10 μM as percentage of activity of control compound P18 at 10 μM

In order of falling “% GABA Parent” value:
1. CC(=O)Nc1c(C(=O)C(C)C)oc2nc(-c3ccccc3Cl)c(-c3ccc(Cl)cc3)cc12 [Example P2, reference compound]  107%
2. CC(C)C(=O)c1oc2nc(-c3ccccc3Cl)c(-c3ccc(Cl)cc3)cc2c1N1CCCC1=O [Example P17, reference compound]  100%
3. CC(C)(O)C(=O)c1oc2nc(-c3ccccc3Cl)c(-c3ccc(Cl)cc3)cc2c1NC(=O)CO [Example P18, reference compound]  100%
4. CC(=O)Nc1c(C(=O)C(C)(C)O)oc2nc(-c3ccccc3Cl)c(-c3ccc(Cl)cc3)cc12 [Example P1, reference compound]  99%
5. CCc1c(C(=O)C(C)(C)O)oc2nc(-c3ccccc3Cl)c(-c3ccc(Cl)cc3)cc12 [Example P19, reference compound]  96%
6. C[C@H](O)C(=O)Nc1c(C(=O)C(C)(C)C)oc2nc(-c3ccccc3Cl)c(-c3ccc(Cl)cc3)cc12 [Example P11, reference compound]  94%
7. CC(C)(O)C(=O)c1oc2nc(-c3ccccc3Cl)c(-c3ccc(Cl)cc3)cc2c1N [Example P13, reference compound]  91%
8. CC(C)(C)C(=O)c1oc2nc(-c3ccccc3Cl)c(-c3ccc(Cl)cc3)cc2c1NC(=O)CO [Example P16, reference compound]  90%
9. CCC(=O)c1oc2nc(-c3ccccc3Cl)c(-c3ccc(Cl)cc3)cc2c1NC(C)=O [Example P4, reference compound]  76%
10. Cc1c(C(=O)C(C)(C)O)oc2nc(-c3ccccc3Cl)c(-c3ccc(Cl)cc3)cc12 [Example P7, reference compound]  75%
11. CC(=O)Nc1c(C(=O)C(C)(C)C)oc2nc(-c3ccccc3Cl)c(-c3ccc(Cl)cc3)cc12 [Example P3, reference compound]  67%
12. CC(=O)c1c(C(=O)C(C)(C)C)oc2nc(-c3ccccc3Cl)c(-c3ccc(Cl)cc3)cc12 [Example P21, reference compound]  62%
13. Cc1c(C(=O)CC(C)C)oc2nc(-c3ccccc3Cl)c(-c3ccc(Cl)cc3)cc12 [Example P10, reference compound]  59%
14. Cc1c(C(=O)C(C)C)oc2nc(-c3ccccc3Cl)c(-c3ccc(Cl)cc3)cc12 [Example P14, reference compound]  51%
15. CCC(=O)c1oc2nc(-c3ccccc3Cl)c(-c3ccc(Cl)cc3)cc2c1C [Example P15, reference compound]  50%
16. CC(C)(C)C(=O)c1oc2nc(-c3ccccc3Cl)c(-c3ccc(Cl)cc3)cc2c1CO [Example P20, reference compound]  50%
17. CC(C)(C)C(=O)c1oc2nc(-c3ccccc3Cl)c(-c3ccc(Cl)cc3)cc2c1C(N)=O [Example P12, reference compound]  40%
18. CC(C)(C)C(=O)c1oc2nc(-c3ccccc3Cl)c(-c3ccc(Cl)cc3)cc2c1N [Example P5, reference compound]  33%
19. Cc1c(S(=O)(=O)C(C)(C)C)oc2nc(-c3ccccc3Cl)c(-c3ccc(Cl)cc3)cc12 [Example P9, reference compound]  29%
20. Cc1c(C(=O)C(C)(C)C)oc2nc(-c3ccccc3Cl)c(-c3ccc(Cl)cc3)cc12 [Example P8, reference compound]  25%
